From patent US20240124467A1, “FUSED PYRIMIDINE COMPOUNDS AS INHIBITORS OF MENIN-MLL INTERACTION” (Biomea Fusion, Inc., priority 2020, published 2024)
Read-outs that look alike come from different tables or passages of the source.

How the values were obtained:
Type in all cases: cell-based
MV4-11 = assay: Cell proliferation inhibition (CellTiter-Glo), MV4-11 cells; conditions: Homo sapiens, MV4-11 (MLL-AF4)
Experimental: (§1) The present example evaluates the ability of compounds described herein, inhibitors of Menin/MLL interaction, to inhibit cell proliferation. The proliferation inhibitory effect was investigated in human MLL-leukemia cells selected on the bases of MLL fusion proteins and listed in the table below.
(§2) ATP is present in all metabolically active cells and is considered as a marker for cell viability and proliferation. The metabolic cell activity was determined using the CellTiter-Glo kit from Promega, an ATP monitoring system based on the production of luminescence by the reaction of ATP with added UltraGlo® recombinant luciferase (Kawano et al., 2016, PLOS One, 8:11(7):e0158888), according to the supplier's experimental recommendations. The assay is based on a 96 well plate format. All experiments were carried out in duplicate in one test occasion.
(§3) Test items were dissolved at 20 mM in DMSO with purity ≥99.9% (Sigma catalog no. D8418) and stored at −20° C. Cells were maintained in RPMI-1640 medium (Invitrogen catalog no. 618700) supplemented with 10% of Heat Inactivated FBS (Invitrogen catalog no. 10500) and 1% Pen-Strep (Invitrogen catalog no. 15140) and cultured at 37° C. in a humidified incubator with 5% CO2. Cell lines were grown in suspension and the cell density was maintained in a range of 5×10^4-1×10^6 viable cells/ml where possible. Cells were pelleted at 130 g×5 min.
(§4) Serial dilutions of compounds 1 to 3 in DMSO 100% were prepared starting from a 2.5 mM solutions (prepared by diluting 1:8 the 20 mM stock solution) to generate a 7 point concentration response curve (CRC). Seven concentrations of test compounds (e.g., 5.00×10^−6-1.67×10^−6-5.56×10^−7-1.85×10^−7-6.17×10^−8-2.06×10^−8-6.86×10^−9 M) were assessed in duplicate in an individual test occasion in parallel in the selected cell lines. KO-539 was used as a reference compound and tested in duplicate at seven similar concentrations. 100% of proliferation was represented by the untreated cells (0.2% DMSO).
(§5) Cell proliferation inhibition was monitored at both the following end points: Day 4 (T4) and Day 7 (T7). For the appropriate cell density during the exponential cell growth and re-supply with fresh compound solution at T4, cells were diluted (1:4) with fresh medium containing the compound concentration (1×).
(§6) For each plate to test, one 0.4 μL copy plate and four 0.3 μL copy plates were stamped into 96-well plates not treated for cell adhesion (Sarstedt—cat. no. 82.1581.001) by acoustic liquid handling (Echo) at a concentration which was 500 fold the final assay concentration. Stamped plates were stored at −20° C.
(§7) On Day 0, the day of the experiment cell line suspensions were counted by Cell Viability Analyser, Vi-CELL (Beckman Coulter AY15292), and diluted with fresh medium to obtain the following cell densities: K-562 500 c/ml, MOLM-13 1,000 c/ml, MV4-11 10,000 c/ml, OCI-AML-3 500 c/ml, and U-937 500-1,000 c/ml. 200 μL/well and 150 μL/well of cell suspension were added into the 0.4 μL/well and 0.3 μL/well compound plates, respectively. Cell plate containing 200 μL/well suspension were incubated at 37° C. in a humidified incubator with 5% CO2. From each well of the 150 μL/well cell assay plate, 100 μL were harvested and transferred into a 96-well Optiplate (Perkin Elmer, cat. no. 6005290). Cell viability was measured as described below.
(§8) On Day 4, 150p/well of fresh medium was added into a new 0.3 μL/well copy compound plates. From each well of the 200 μL/well cell assay plate, 100 μL was sampled for the cell viability measurement as described below. 50p was harvested and added to the 150p/well compound plate prepared as described in the first point to dilute 1:4 the cell suspension. The cell assay plate diluted and containing 200 μL/well suspension was incubated at 37° C. in a humidified incubator with 5% CO2.
(§9) On Day 4, 150p/well of fresh medium was added into a new 0.3 μL/well copy compound plates. […]

MOLM-13 = assay: Cell proliferation inhibition (CellTiter-Glo), MOLM-13 cells; conditions: Homo sapiens, MOLM-13 (MLL-AF9)
Experimental: as §1, §2, §3, §4, §5, §6, §7, §8, §9

K-562 = assay: Cell proliferation inhibition (CellTiter-Glo), K-562 cells; conditions: Homo sapiens, K-562 (BCR-ABL)
Experimental: as §1, §2, §3, §4, §5, §6, §7, §8, §9

[1] = 96 h, Day 4, read-out: MV-4:11 IC50 μM (Day 4)*
[2] = 168 h, Day 7, read-out: MV-4:11 IC50 μM (Day 7)*
[3] = 96 h, Day 4, read-out: MOLM-13 Day IC50 μM (Day 4)*
[4] = 168 h, Day 7, read-out: MOLM-13 Day IC50 μM (Day 7)*
[5] = K562, 96 h, Day 4, read-out: K-562 IC50 μM (Day 4)
[6] = K562, 168 h, Day 7, read-out: K-562 IC50 μM (Day 7)*

IC50 (MV4-11; [1]) [µM] | IC50 (MV4-11; [2]) [µM] | IC50 (MOLM-13; [3]) [µM] | IC50 (MOLM-13; [4]) [µM] | IC50 (K-562; [5]) [µM] | IC50 (K-562; [6]) [µM] | Compound
0.696 | 1.03 | 0.923 | 0.523 | 0.554 | 0.186 | C=CC(=O)N[C@@H]1CCCN(Cc2ccnc(C(=O)Nc3ccc(-c4cc5c(N6CCOCC6)nccc5[nH]4)cc3)c2)C1 [Compound B0700-614, (R)-4-((3-acrylamidopiperidin-1-yl)methyl)-N-(4-(4-morpholino-1H-pyrrolo[3,2-c]pyridin-2-yl)phenyl)picolinamide]
0.113 | – | 0.185 | – | 8.31 | – | C=CC(=O)N[C@H]1CCN(c2cccc(CS(=O)(=O)Nc3ccc(-c4cc5c(N6CCOCC6)ncnc5[nH]4)cc3)c2)C1 [Compound B0700-511, (S)—N-(1-(3-((N-(4-(4-morpholino-7H-pyrrolo[2,3-d]pyrimidin-6-yl)phenyl)sulfamoyl)methyl)phenyl)pyrrolidin-3-yl)acrylamide]
0.148 | – | 0.329 | – | > 10 | – | C=CC(=O)N[C@H]1CCCN(c2cccc(CS(=O)(=O)Nc3ccc(-c4cc5c(N6CCOCC6)ncnc5[nH]4)cc3)c2)C1 [Compound B0700-540]
0.786 | 0.78 | 1.27 | 1.47 | 8.83 | 10.1 | C=CC(=O)N[C@H]1CCN(c2cccc(CC(=O)Nc3ccc(-c4cc5c(N6CCOCC6)ncnc5[nH]4)cc3)c2)C1 [Compound B0700-618, (S)—N-(1-(3-(2-((4-(4-morpholino-7H-pyrrolo[2,3-d]pyrimidin-6-yl)phenyl)amino)-2-oxoethyl)phenyl)pyrrolidin-3-yl)acrylamide]
> 10 | – | > 10 | – | > 10 | – | C=CC(=O)N[C@@H]1CCCN(Cc2cccc(S(=O)(=O)Nc3ccc(-c4nc5c(N6CCOCC6)ncnc5s4)cc3)c2)C1 [Compound B0700-532, (R)—N-(1-(3-(N-(4-(7-morpholinothiazolo[5,4-d]pyrimidin-2-yl)phenyl)sulfamoyl)benzyl)piperidin-3-yl)acrylamide]
1.4 | 1.14 | 2.85 | 2.39 | > 10 | > 10 | C=CC(=O)N1CCC(N2CCN(S(=O)(=O)Nc3ccc(-c4cc5c(N6CCOCC6)ncnc5[nH]4)cc3)CC2)CC1 [Compound B0700-612, 4-(1-acryloylpiperidin-4-yl)-N-(4-(4-morpholino-7H-pyrrolo[2,3-d]pyrimidin-6-yl)phenyl)piperazine-1-sulfonamide]
0.634 | – | 0.506 | – | 6.7 | – | CCN(C/C=C/C(=O)N[C@@H]1CCCN(Cc2ccnc(C(=O)Nc3ccc(-c4cc5c(N6CCOCC6)ncnc5[nH]4)cc3)c2)C1)C1CC1 [Compound B0700-525]
> 10 | – | > 10 | – | > 10 | – | C=CC(=O)N[C@@H]1CCCN(Cc2cccc(S(=O)(=O)NC3CCN(c4nc5c(N6CCOCC6)ncnc5s4)CC3)c2)C1 [Compound B0700-533]
> 10 | – | > 10 | – | > 10 | – | C=CC(=O)N[C@H]1CCN(c2cccc(CS(=O)(=O)NC3CCN(c4nc5c(N6CCOCC6)ncnc5s4)CC3)c2)C1 [Compound B0700-537]
3.88 | – | 5.68 | – | > 10 | – | C=CC(=O)N[C@H]1CCN(c2cccc(CS(=O)(=O)Nc3ccc(-c4cc5c(N6CCOCC6)ncnc5[nH]4)cn3)c2)C1 [Compound B0700-536]
1.5 | – | 1.56 | – | 4.34 | – | C=CC(=O)N[C@@H]1CCCN(Cc2ccnc(C(=O)Nc3ccc(-c4cc5c(C6CCOCC6)ncnc5[nH]4)cc3)c2)C1 [Compound B0700-516, (R)-4-((3-acrylamidopiperidin-1-yl)methyl)-N-(4-(4-(tetrahydro-2H-pyran-4-yl)-7H-pyrrolo[2,3-d]pyrimidin-6-yl)phenyl)picolinamide]
0.764 | – | 0.683 | – | > 10 | – | CN(C/C=C/C(=O)N[C@@H]1CCCN(Cc2ccnc(C(=O)Nc3ccc(-c4cc5c(N6CCOCC6)ncnc5[nH]4)cc3)c2)C1)C1CC1 [Compound B0700-524, (R,E)-4-((3-(4-(cyclopropyl(methyl)amino)but-2-enamido)piperidin-1-yl)methyl)-N-(4-(4-morpholino-7H-pyrrolo[2,3-d]pyrimidin-6-yl)phenyl)picolinamide]
0.232 | – | 0.213 | – | > 10 | – | O=C(/C=C/Cc1cnc[nH]1)N[C@@H]1CCCN(Cc2ccnc(C(=O)Nc3ccc(-c4cc5c(N6CCOCC6)ncnc5[nH]4)cc3)c2)C1 [Compound B0700-523]
0.318 | 0.37 | 0.492 | 1.07 | > 10 | 9.87 | C=CC(=O)N[C@@H]1CCCN(Cc2ccnc(C(=O)Nc3ccc(-c4cc5c(N6CCC(C)(O)CC6)ncnc5[nH]4)cc3)c2)C1 [Compound B0700-569]
> 10 | – | 0.184 | – | 7.05 | – | C=CC(=O)N[C@@H]1CCN(c2cccc(CS(=O)(=O)Nc3ccc(-c4cc5c(N6CCOCC6)ncnc5[nH]4)cc3)c2)C1 [Compound B0700-535, (R)—N-(1-(3-((N-(4-(4-morpholino-7H-pyrrolo[2,3-d]pyrimidin-6-yl)phenyl)sulfamoyl)methyl)phenyl)pyrrolidin-3-yl)acrylamide]
0.477 | 0.41 | 0.447 | 0.51 | 4.55 | 4.86 | C=CC(=O)N[C@H]1CCN(c2cccc(C(C)(C)C(=O)Nc3ccc(-c4cc5c(N6CCOCC6)ncnc5[nH]4)cc3)c2)C1 [Compound B0700-617, (S)—N-(1-(3-(2-methyl-1-((4-(4-morpholino-7H-pyrrolo[2,3-d]pyrimidin-6-yl)phenyl)amino)-1-oxopropan-2-yl)phenyl)pyrrolidin-3-yl)acrylamide]
0.397 | – | 0.282 | – | > 10 | – | [2H]C1([2H])OC([2H])([2H])C([2H])([2H])N(c2ncnc3[nH]c(-c4ccc(NC(=O)c5cc(CN6CCC[C@@H](NC(=O)C=C)C6)ccn5)cc4)cc23)C1([2H])[2H] [Compound B0700-601, (R)-4-((3-acrylamidopiperidin-1-yl)methyl)-N-(4-(4-(morpholino-d8)-7H-pyrrolo[2,3-d]pyrimidin-6-yl)phenyl)picolinamide]
0.212 | – | 0.276 | – | > 10 | – | C/C=C/S(=O)(=O)N[C@@H]1CCCN(Cc2ccnc(C(=O)Nc3ccc(-c4cc5c(N6CCOCC6)ncnc5[nH]4)cc3)c2)C1 [Compound B0700-550]
0.436 | – | 0.374 | – | > 10 | – | C=CC(=O)N[C@@H]1CCCN(c2cccc(CS(=O)(=O)Nc3ccc(-c4cc5c(N6CCOCC6)ncnc5[nH]4)cc3)c2)C1 [Compound B0700-539]
